Target: T1, LGR5 (Homo sapiens, UniProt O75473)
T1 construct: purchased Promega (in-house HiBiT-GPCR construct library, NanoBRET)
T1 sequence (O75473 22-907): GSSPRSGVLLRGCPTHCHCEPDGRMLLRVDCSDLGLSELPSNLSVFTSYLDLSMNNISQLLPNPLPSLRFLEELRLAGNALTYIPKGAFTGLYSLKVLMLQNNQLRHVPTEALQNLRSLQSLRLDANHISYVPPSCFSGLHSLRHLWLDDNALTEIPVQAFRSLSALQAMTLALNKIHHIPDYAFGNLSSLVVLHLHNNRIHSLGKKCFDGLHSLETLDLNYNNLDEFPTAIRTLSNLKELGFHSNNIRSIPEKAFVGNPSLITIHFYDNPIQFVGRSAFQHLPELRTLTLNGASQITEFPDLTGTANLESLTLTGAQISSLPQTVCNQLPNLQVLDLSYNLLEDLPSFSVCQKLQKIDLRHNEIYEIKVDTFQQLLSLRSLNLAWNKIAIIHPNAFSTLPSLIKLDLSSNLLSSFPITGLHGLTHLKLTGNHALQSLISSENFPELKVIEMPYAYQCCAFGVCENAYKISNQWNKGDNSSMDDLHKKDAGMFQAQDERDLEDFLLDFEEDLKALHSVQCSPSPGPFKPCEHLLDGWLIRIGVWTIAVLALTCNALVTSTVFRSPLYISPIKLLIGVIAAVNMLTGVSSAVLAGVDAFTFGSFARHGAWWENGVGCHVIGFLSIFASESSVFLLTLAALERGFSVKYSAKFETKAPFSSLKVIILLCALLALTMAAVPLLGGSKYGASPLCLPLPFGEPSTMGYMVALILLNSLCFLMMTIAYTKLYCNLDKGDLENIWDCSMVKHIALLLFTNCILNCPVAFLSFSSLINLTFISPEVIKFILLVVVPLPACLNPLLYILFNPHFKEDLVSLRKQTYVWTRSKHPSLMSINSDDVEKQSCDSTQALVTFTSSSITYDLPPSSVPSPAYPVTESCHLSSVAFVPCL
Assay: NanoBRET screen HiBiT-LGR5 in HEK293
Format: binding
Protocol: Each tracer candidate was screened across the entire library of HiBiT-GPCR constructs using NanoBRET as the detection modality. As depicted in Figure 4A, the specificity of interactions was evaluated through decrease in BRET due to competitive displacement of a bound tracer by excess parental compound. Each tracer was analyzed for binding to each HiBiT-GPCR fusion in the absence and in the presence of competing parental compound. Briefly, HEK293 cells were transfected with HiBiT-GPCR constructs diluted into promoterless DNA to reduce expression and maximize translocation to the cell surface. Each tracer candidate was then screened at concentrations of 1 μM and 0.1 μM across cells expressing these fusions. Cells were treated for 1.5 h with tracer either alone or in the presence of 20 μM competing parental compound (i.e., control). BRET was measured upon addition of purified LgBiT and subsequent complementation with HiBiT genetically fused to a GPCR. The specificity of interactions was assessed through a decrease in BRET signal due to competitive displacement of the bound tracer. To further gauge the robustness of these interactions, the fold response over the control (i.e., BRETtracer/BRETcontrol) was calculated. We chose a 1.5-fold response, which translates to ≥7-fold signal over noise as the minimal threshold required to score an interaction as positive.
HiBiT-GPCR DNA constructs were diluted in 10 mM Tris pH 8 to a final concentration of 0.01 μg/μL, arrayed in 96-well plates and stored at −20 °C. For transfection, HEK293 cells were suspended in Opti-MEM (without phenol red) supplemented with 2% fetal bovine serum (Seradigm) and 100 units/mL penicillin–streptomycin (Gibco) at a final concentration of 220,000 cells/mL and dispensed into white 96-well plates at 90 μL/well. Subsequent transfections and screens were carried using an Agilent Bravo Automated Liquid Handling Platform. First, the 96-well HiBiT DNA arrays were diluted 25-fold in Opti-MEM (without serum or phenol red) to a final concentration of 0.0004 μg/μL and 20 μL of the diluted DNAs were transferred into new 96-well plates. Next, promoterless carrier DNA (1 μg/μL) was diluted 25-fold (0.04 μg/μL) and then dispensed into the diluted arrays at 20 μL/well. Following brief mixing, Viafect transfection reagent (Promega) diluted 16-fold into Opti-MEM was dispensed into the plates at 40 μL/well. After mixing by pipetting, plates were incubated for 10 min on the pipetting station deck. The DNA-transfection reagent complexes were then added to plates containing cells. To facilitate the screen, 10 μL of DNA-transfection reagent complexes were added in duplicates to the top 4 and bottom 4 rows, resulting in two identical 48-well arrays per plate. Plates with transfected cells were incubated for 18–20 h at 37 °C/5% CO2. A screen of each tracer across the entire library using two different concentrations requires duplicate plates of transfected cells. Depending on the number of tracers being screened, transfections can be scaled up using the same ratios. The next day, for each tracer, four 20× screening solutions in tracer dilution buffer (Promega) were prepared: two duplicates at final concentration of 20 μM and two duplicates at a final concentration of 2 μM. […] The four resulting solutions were diluted 4-fold in Opti-MEM without serum or phenol red to generate 5× solutions (5 µM and 0.5 µM tracer +/− 100 μM competing compound). To screen the library, a BioTek MultiFlo FX liquid dispenser was used to dispense 22.5 µL of tracer solution to the top 4 rows and 22.5 µL tracer + competing compound solution to the 4 bottom rows. Plates were briefly mixed on an orbital shaker and incubated for 1.5 h at room temperature. […] Plates were briefly mixed on an orbital shaker and incubated for 15 min to allow complementation.

Row | SMILES | NanoBRET Fold Response (LGR5, tracer 0.1μM) | NanoBRET Fold Response (LGR5, tracer 1μM) | other results
1 | CCOC(=O)c1cc(C#N)c(N2CCC(C(=O)NS(=O)(=O)Cc3ccccc3/C=C/C(=O)NCCNC(=O)CCc3ccc4n3[B-](F)(F)[N+]3=C(c5ccc[nH]5)C=CC3=C4)CC2)nc1C [AZD1283-1-NB590] | – | – | NanoBRET Fold Response (LGR5, 0.1μM): 0.86; NanoBRET Fold Response (LGR5, 1μM): 0.91
2 | N#CN=C(NCCCOc1cccc(CN2CCCCC2)c1)NCCNC(=O)CCOCCOCCOCCOCCNC(=O)CCc1ccc2n1[B-](F)(F)[N+]1=C(c3ccc[nH]3)C=CC1=C2 [Aminopotentidine-2-NB590] | 0.79 | 1.15 | –
3 | CN(C)CCC=C1c2ccccc2CCc2ccc(C(=O)NCCNC(=O)CCOCCOCCOCCOCCNC(=O)CCc3ccc4n3[B-](F)(F)[N+]3=C(c5ccc[nH]5)C=CC3=C4)cc21 [Amitriptyline-a-2-NB590] | – | – | NanoBRET Fold Response (tracer at 0.1μM): 0.91; NanoBRET Fold Response (tracer at 1μM): 1.02
4 | CN(C)CCC=C1c2ccccc2CCc2ccc(C(=O)NCCNC(=O)CCOCCOCCOCCOCCNC(=O)CCc3ccc4n3[B-](F)(F)[N+]3=C(c5ccc[nH]5)C=CC3=C4)cc21 [Amitriptyline-b-2-NB590] | – | – | NanoBRET Fold Response (tracer at 0.1μM, listed as amitriptyline-b-2-NB590): 1.19; NanoBRET Fold Response (tracer at 1μM, listed as amitriptyline-b-2-NB590): 1.19
5 | CN(CCC=C1c2ccccc2CCc2ccccc21)C(=O)CCOCCOCCOCCOCCNC(=O)CCc1ccc2n1[B-](F)(F)[N+]1=C(c3ccc[nH]3)C=CC1=C2 [Amitriptyline-e-2-NB590] | – | – | NanoBRET Fold Response (tracer at 1μM): 0.85
6 | COc1ccc2c(n1)c(CCNC(C)=O)cn2CCNC(=O)CCc1ccc2n1[B-](F)(F)[N+]1=C(c3ccc[nH]3)C=CC1=C2 [Azamelatonin-1-NB590] | – | – | NanoBRET Fold Response (0.1μM tracer): 0.96; NanoBRET Fold Response (1μM tracer): 0.96
7 | COc1ccc2[nH]c(-c3ccc(CNC(=O)CCOCCOCCOCCOCCNC(=O)CCc4ccc5n4[B-](F)(F)[N+]4=C(c6ccc[nH]6)C=CC4=C5)cc3)c(CCNC(C)=O)c2n1 [AzomelatoninICO9-2-NB590] | – | – | NanoBRET Fold Response (0.1μM tracer): 1.35; NanoBRET Fold Response (1μM tracer): 0.94
8 | O=C(CCOCCOCCOCCOCCNC(=O)CCc1ccc2n1[B-](F)(F)[N+]1=C(c3ccc[nH]3)C=CC1=C2)NCCCN1CCN(C2=Nc3cc(Cl)ccc3Nc3ccccc32)CC1 [Clozapine-a-2-NB590] | – | – | NanoBRET Fold Response (LGR5, 0.1μM tracer): 0.94; NanoBRET Fold Response (LGR5, 1μM tracer): 0.79
9 | CN1CCN(C2=Nc3cc(Cl)ccc3Nc3ccc(CNC(=O)CCOCCOCCOCCOCCNC(=O)CCc4ccc5n4[B-](F)(F)[N+]4=C(c6ccc[nH]6)C=CC4=C5)cc32)CC1 [Clozapine-b-2-NB590] | – | – | NanoBRET Fold Response (LGR5, 0.1μM tracer): 0.95
10 | CN1CCN(C2=Nc3cc(Cl)ccc3N(CC(=O)NCCOCCOCCOCCOCCNC(=O)CCc3ccc4n3[B-](F)(F)[N+]3=C(c5ccc[nH]5)C=CC3=C4)c3ccccc32)CC1 [Clozapine-c-2-NB590] | – | – | NanoBRET Fold Response (LGR5, 1μM tracer): 0.83
11 | O=C(CCOCCOCCOCCOCCNC(=O)CCc1ccc2n1[B-](F)(F)[N+]1=C(c3ccc[nH]3)C=CC1=C2)NCCCN1CCN(C2=Nc3ccccc3Oc3ccc(Cl)cc32)CC1 [Loxapine-a-2-NB590] | 0.94 | 0.97 | –
12 | COc1ccccc1N1CCN(CCCCN2C(=O)c3ccc(CNC(=O)CCOCCOCCOCCOCCNC(=O)CCc4ccc5n4[B-](F)(F)[N+]4=C(c6ccc[nH]6)C=CC4=C5)cc3C2=O)CC1 [NAN-190-2-NB590] | 1.22 | 0.83 | –
13 | COc1ccccc1N1CCN(CCCCN2C(=O)c3ccc(CNC(=O)CCOCCNC(=O)c4ccc(CNC(=O)CCc5ccc6n5[B-](F)(F)[N+]5=C(c7ccc[nH]7)C=CC5=C6)cc4)cc3C2=O)CC1 [NAN-190-3-NB590] | 1.30 | 0.72 | –
14 | O=C(CCc1ccc2n1[B-](F)(F)[N+]1=C(c3ccc[nH]3)C=CC1=C2)NCc1ccc(C(=O)NCCOCCC(=O)N[C@@H]2CC[C@@]3(O)[C@H]4Cc5ccc(O)c6c5[C@@]3(CCN4CC3CC3)[C@H]2O6)cc1 [Naltrexone-3-NB590] | 0.41 | 1.33 | –
15 | Cc1cc2c(s1)Nc1ccccc1N=C2N1CCN(CCCNC(=O)CCOCCOCCOCCOCCNC(=O)CCc2ccc3n2[B-](F)(F)[N+]2=C(c4ccc[nH]4)C=CC2=C3)CC1 [Olanzapine-a-2-NB590] | 0.91 | 0.81 | –
16 | O=C(CCc1ccc2n1[B-](F)(F)[N+]1=C(c3ccc[nH]3)C=CC1=C2)NCc1ccc(C(=O)NCCOCCOCCNCC(O)COc2cccc3ccccc23)cc1 (stereo not drawn) [Propranolol-3-NB590] | – | – | NanoBRET Fold Response (LGR5, 0.1μM): 1.10; NanoBRET Fold Response (LGR5, 1μM): 0.93
17 | O=C(CCc1ccc2n1[B-](F)(F)[N+]1=C(c3ccc[nH]3)C=CC1=C2)NCCOCCOCCNC(=O)OCCOCCN1CCN(C2=Nc3ccccc3Sc3ccccc32)CC1 [Quetiapine-a-2-NB590] | 1.02 | 0.78 | –
18 | Cc1nc2n(c(=O)c1CCN1CCC(c3noc4cc(F)ccc34)CC1)CCCC2OC(=O)NCCOCCOCCOCCOCCNC(=O)CCc1ccc2n1[B-](F)(F)[N+]1=C(c3ccc[nH]3)C=CC1=C2 (stereo not drawn) [Risperidone-2-NB590] | 1.07 | 1.18 | –
19 | CC(C)N(CC[C@H](c1ccccc1)c1cc(CCNC(=O)CCOCCOCCOCCOCCNC(=O)CCc2ccc3n2[B-](F)(F)[N+]2=C(c4ccc[nH]4)C=CC2=C3)ccc1O)C(C)C [Tolterodine-2-NB590] | 0.91 | 0.71 | –
20 | CC(C)N(CC[C@H](c1ccccc1)c1cc(CCNC(=O)c2ccc(CNC(=O)CCc3ccc4n3[B-](F)(F)[N+]3=C(c5ccc[nH]5)C=CC3=C4)cc2)ccc1O)C(C)C [Tolterodine-BZ-NB590] | 0.91 | 0.89 | –
21 | CCCn1c(=O)c2[nH]c(-c3ccc(OCC(=O)NCCNC(=O)CCOCCNC(=O)c4ccc(CNC(=O)CCc5ccc6n5[B-](F)(F)[N+]5=C(c7ccc[nH]7)C=CC5=C6)cc4)cc3)nc2n(CCC)c1=O [XAC-3-NB590] | 0.95 | 0.89 | –

Source: PMC8151276, “An Integrated Approach toward NanoBRET Tracers for Analysis of GPCR Ligand Engagement” (Molecules, 2021)
